In patent US20100323021A1, “ANTITUMORAL TREATMENTS” (PHARMA MAR, S.A., priority 2008, published 2010):

Columns and labels:
mouse leukemia (P388) = conditions: cited from earlier work
[1] = test system: non-small cell lung (A549); conditions: cited from earlier work
colon (HT-29) = conditions: cited from earlier work
[2] = test system: human cervical epithelium HeLa tumor cells; assay: Antiproliferation assay (WST-1 cell viability); type: cell-based; conditions: 24 h incubation, conjugates added at a peptide concentration of 1×10^−5 M
Protocol: The degree of cytotoxic activity of single peptides (P1 and P2), single gold nanoparticle solutions (AuNP-20 and AuNP-40) and their respective conjugates was determined by cell viability testing using the WST-1 assay in human cervical epithelium HeLa tumor cells, following 24 h of incubation. Each assay was run in sextuplicate, and the whole experiment was run in triplicate.
HeLa cell line (ATTC no CCL-2) was maintained in Dulbecco Modified Eagle's Minimal Essential Medium (DMEM) low glucose medium (Biological Industries) containing 10% foetal calf serum (FCS), 2 mM glutamine, 50 U/mL penicillin, and […] streptomycin at 37° C. in a controlled 5% CO2 atmosphere.
For cell viability experiments, exponentially growing HeLa cells were detached from the culture flasks using a trypsin-0.25% ethylenediaminetetraacetic acid (EDTA) solution and the cell suspension was seeded at a concentration of 3.5×10^3 cells/cm^2 onto glass coverslips (Nalge Nunc International, Rochester, N.Y.). WST 1 assays were carried out 24 h later, when the confluence was approximately 70-80%. Non-adherent cells were washed away and attached cells were incubated at 37° C. in 5% CO2 in DMEM with a known concentration of gold nanoparticles.
For each assay, 3.5×10^3 cells/cm^2 were seeded onto a 96-well plate (Nalge Nunc) and cultured for 24 h. […]

[3] = test system: human tumor cell types such as breast, prostate, and melanoma; conditions: xenografted murine models; cited from earlier work

C/C=C1\NC(=O)[C@H](Cc2ccccc2)NC(=O)[C@@H](C(C)C)NC(=O)[C@@H]([C@@H](C)CC)NC(=O)[C@H](NC(=O)[C@H](NC(=O)[C@H](CCCN)NC(=O)[C@H]2CCCN2C(=O)[C@H](NC(=O)[C@@H](NC(=O)[C@@H](NC(=O)[C@H](NC(=O)CCCC(C)C)C(C)C)[C@@H](C)O)C(C)C)C(C)C)[C@@H](C)CC)[C@@H](C)OC(=O)[C@H](C(C)C)NC1=O [Kahalalide F]
in vitro activity (mouse leukemia (P388)): micromolar activity
in vitro activity [1]: micromolar activity
in vitro activity (colon (HT-29)): micromolar activity

C/C=C1\NC(=O)[C@H](Cc2ccccc2)NC(=O)[C@@H](C(C)C)NC(=O)[C@@H]([C@@H](C)CC)NC(=O)[C@H](NC(=O)[C@H](NC(=O)[C@H](CCCN)NC(=O)[C@H]2CCCN2C(=O)[C@H](NC(=O)[C@@H](NC(=O)[C@@H](NC(=O)[C@@H](CS)NC(=O)CCCC(C)C)[C@@H](C)O)C(C)C)C(C)C)[C@@H](C)CC)[C@@H](C)OC(=O)[C@H](C(C)C)NC1=O [P1]
inhibition (cytotoxicity against HeLa cells) [2]: 50%

C/C=C1\NC(=O)[C@H](Cc2ccccc2)NC(=O)[C@@H](C(C)C)NC(=O)[C@@H]([C@@H](C)CC)NC(=O)[C@H](NC(=O)[C@H](NC(=O)[C@H](CCCN)NC(=O)[C@H]2CCCN2C(=O)[C@H](NC(=O)[C@@H](NC(=O)[C@@H](NC(=O)[C@H](CS)NC(=O)CCCC(C)C)[C@@H](C)O)C(C)C)C(C)C)[C@@H](C)CC)[C@@H](C)OC(=O)[C@H](C(C)C)NC1=O [P2]
inhibition (cytotoxicity against HeLa cells) [2]: 10%

C/C=C1\NC(=O)[C@H](Cc2ccccc2)NC(=O)[C@@H](C(C)C)NC(=O)[C@@H]([C@@H](C)CC)NC(=O)[C@H](NC(=O)[C@H](NC(=O)[C@H](CCCN)NC(=O)[C@H]2CCCN2C(=O)[C@H](NC(=O)[C@@H](NC(=O)[C@@H](NC(=O)[C@H](NC(=O)CC[C@@H](C)CC)C(C)C)[C@@H](C)O)C(C)C)C(C)C)[C@@H](C)CC)[C@@H](C)OC(=O)[C@H](C(C)C)NC1=O [PMO2734]
in vivo activity [3]: significant in vivo activity
